Among the data in US20260035365A1, “1H-PYRROLO[3,2-B]PYRIDINE DERIVATIVES AS IRREVERSIBLE INHIBITORS OF MUTANT EGFR FOR THE TREATMENT OF CANCER” (Bayer Aktiengesellschaft, priority 2022, published 2026) are IC50 values, retold here.

The target in assay [1] is mutEGFR (D770_N771insSVD) (Homo sapiens, UniProt P00533, INS767SVD). The assay is described as follows: Exon20-mutant-EGFR (D770_N771insSVD) TR-FRET kinase assay. The class given is biochemical. As to conditions: 2 mM ATP, 15 min preincubation. The text has this: Inhibitory activity of compounds of the present invention against an Epidermal Growth Factor Receptor (EGFR) with an insertion of the amino acids sequence SVD between D770 and N771 (SEQ ID No. 5) was quantified employing the TR-FRET based kinase activity assay as described in the following paragraphs.
A recombinant fusion protein of N-terminal Glutathion-S-Transferase (GST) and a fragment of human EGFR variant (amino acids R669 to A1210 with insertion of the amino acids sequence SVD between D770 and N771 (SEQ ID No. 5) (“EGFR ins SVD”), expressed in Sf9 insect cells and purified via affinity chromatography using Glutathion Sepharose as described above, was used as a kinase. As substrate for the kinase reaction the biotinylated peptide biotin-Ahx-AEEEEYFELVAKKK (C-terminus in amide form) (SEQ ID No. 6) was used which can be purchased e.g. form the company Biosynthan GmbH (Berlin-Buch, Germany).
For the assay 50 nl of a 100-fold concentrated solution of the test compound in DMSO was pipetted into either a black low volume 384 well microtiter plate or a black 1536 well microtiter plate (both Greiner Bio-One, Frickenhausen, Germany), 2 μl of a solution of EGFR in aqueous assay buffer [50 mM Hepes pH 7.0, 10 mM MgCl2, 1 mM dithiothreitol, 0.5 mM EGTA, 0.3 mM activated sodium ortho-vanadate, 0.005% (w/v) bovine serum albumin, 0.005% (v/v) Tween-20] were added and the mixture was incubated for 15 min at 22° C. to allow pre binding of the test compounds to the enzyme before the start of the kinase reaction. […] The concentration of EGFR was adjusted depending of the activity of the enzyme lot and was chosen appropriate to have the assay in the linear range, typical concentration was 15 pg/μl. The reaction was stopped by the addition of 3 μl of a solution of HTRF detection reagents (83.3 nM streptavidine-XL665 [Cisbio Bioassays, Codolet, France] and 1.67 nM PT66-Tb-Cryptate, a terbium-cryptate labelled anti-phospho-tyrosine antibody from Cisbio Bioassays [instead of the PT66 Tb cryptate PT66 Eu Chelate from Perkin Elmer can also be used]) in an aqueous EDTA-solution (133.3 mM EDTA, 0.2% (w/v) bovine serum albumin in 50 mM HEPES pH 7.5).
The resulting mixture was incubated 1 h at 22° C. to allow the binding of the biotinylated phosphorylated peptide to the streptavidine-XL665 and the PT66-Tb-Cryptate. Subsequently, the amount of phosphorylated substrate was evaluated by measurement of the resonance energy transfer from the PT66-Tb-Cryptate to the streptavidine-XL665. Therefore, the fluorescence emissions at 620 nm and 665 nm after excitation at 337 nm were measured in a HTRF reader, e.g. a Pherastar (BMG Labtechnologies, Offenburg, Germany) or a Viewlux (Perkin-Elmer). The ratio of the emissions at 665 nm and at […] was taken as the measure for the amount of phosphorylated substrate. The data were normalised (enzyme reaction without inhibitor=0% inhibition, all other assay components but no enzyme=100% inhibition).
(In TR-FRET formats the signal depends on donor and acceptor labels being close together.)

Assay [2] deals with mutEGFR (D770_N771insNPG, T790). Nature of the assay: mutEGFR (D770_N771insNPG, T790) kinase assay. The assay is classed as biochemical, human.
In assay [3] the test system is BA/F3 (insSVD) cells. The assay is described as follows: Ba/F3 cell survival assay (Cell Titer-Glo), EGFR-insSVD. The assay is classed as cell-based. As to conditions: without IL-3, with EGF. How it is done:
293T cells from ATCC were transfected with pBABEpuro expression constructs for WT EGFR or EGFR-insSVD, or EGFR-insSVD T790M, and pCL-Eco packaging vector using Fugene-6 transfection reagent from Promega. Plates were incubated at 37° C. for 48 h. Retrovirus was harvested by filtering the media supernatant through a 0.45 μm filter.
Ba/F3 cells purchased from DSMZ were grown in RPMI+10% FBS+10 ng/mL IL-3 and infected with filtered retroviral supernatant at a 1:2 dilution. Polybrene was added to a concentration of 8 μg/mL, plates were spun for 90 min, and incubated for 16 h at 37° C. 2 μg/mL puromycin was added to the infected cells 24 h after infection and cells were continually grown in the presence of puromycin and 10 ng/mL IL-3. Following stably expressing Ba/F3 cell lines were generated: Ba/F3-EGFR-WT, Ba/F3-EGFR-insSVD, Ba/F3-EGFR-insSVD T790M, (Ba/F3-vector-control).
For cell survival assays, Ba/F3 cells were grown to a density of 1-2 million cells per mL, spun down and resuspended in media without IL-3, and replated at a concentration of 200,000-500,000 cells per mL. The cells ectopically expressing WT EGFR, EGFR-insSVD, or EGFR-insSVD T790M were plated with 10 ng/mL Millipore Culture grade EGF. The cells ectopically expressing pBABEpuro empty vector were plated with 10 ng/mL IL-3.
2 days later, cells were plated in 50 μL in a 384 well plate at a concentration of 4000 cells per well for cells assayed in the absence of IL-3 and 2000 cells per well for cells assayed in the presence of IL-3. 100 nL of compound was added to each well using a 100 nL pin head, and plates were incubated at 37° C. for 48 h.
Cell viability was measured by adding 20 μL of Cell Titer-Glo Luminescent Cell Viability Reagent diluted 1:3 in PBS. Plates were sealed with Perkin Elmer Top-Seal, inverted several times to mix, and immediately centrifuged at 1000 rpm for 2 min. Plates were incubated in low light conditions for 8-10 min and luminescence was measured.
On the technique in general: ATP-based viability assays read luminescence as a measure of living cells.

Each structure is given as a SMILES string. Bounds are passed on as bounds.

Sequence of mutEGFR (D770_N771insNPG, T790) (P00533 with tags, fused parts or gaps INS770NPG limits assumed): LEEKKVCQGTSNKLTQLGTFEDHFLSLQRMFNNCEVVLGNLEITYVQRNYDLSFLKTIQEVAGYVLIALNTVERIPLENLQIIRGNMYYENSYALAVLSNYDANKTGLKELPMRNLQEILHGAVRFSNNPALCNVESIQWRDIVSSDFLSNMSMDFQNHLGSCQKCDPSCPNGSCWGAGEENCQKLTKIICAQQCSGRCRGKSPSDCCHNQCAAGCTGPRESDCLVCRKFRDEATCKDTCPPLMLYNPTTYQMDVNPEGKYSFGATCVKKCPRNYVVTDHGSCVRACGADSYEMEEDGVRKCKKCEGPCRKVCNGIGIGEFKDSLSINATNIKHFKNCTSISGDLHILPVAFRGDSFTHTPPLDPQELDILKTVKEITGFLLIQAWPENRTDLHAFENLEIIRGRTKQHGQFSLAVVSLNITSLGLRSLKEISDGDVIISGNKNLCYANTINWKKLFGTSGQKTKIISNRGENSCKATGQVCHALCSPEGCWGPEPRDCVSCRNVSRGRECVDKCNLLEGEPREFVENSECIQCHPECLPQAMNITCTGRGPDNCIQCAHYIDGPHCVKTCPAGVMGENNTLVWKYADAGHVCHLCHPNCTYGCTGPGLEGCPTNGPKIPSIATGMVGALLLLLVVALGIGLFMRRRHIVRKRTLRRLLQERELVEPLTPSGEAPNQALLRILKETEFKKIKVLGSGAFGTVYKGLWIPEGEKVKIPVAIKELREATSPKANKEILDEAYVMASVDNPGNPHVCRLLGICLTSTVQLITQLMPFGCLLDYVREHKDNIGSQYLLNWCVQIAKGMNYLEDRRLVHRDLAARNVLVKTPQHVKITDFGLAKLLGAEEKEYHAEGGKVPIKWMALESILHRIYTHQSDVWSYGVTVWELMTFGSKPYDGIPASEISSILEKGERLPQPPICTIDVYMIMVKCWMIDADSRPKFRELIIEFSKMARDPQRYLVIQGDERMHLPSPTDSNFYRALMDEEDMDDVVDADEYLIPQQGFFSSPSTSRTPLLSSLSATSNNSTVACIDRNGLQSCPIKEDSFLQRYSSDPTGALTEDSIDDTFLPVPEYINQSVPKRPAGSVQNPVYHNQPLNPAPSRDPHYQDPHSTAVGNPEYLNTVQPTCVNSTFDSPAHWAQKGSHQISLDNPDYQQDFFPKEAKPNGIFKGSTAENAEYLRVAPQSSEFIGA
Sequence of mutEGFR (D770_N771insSVD) (P00533 with tags, fused parts or gaps INS767SVD limits assumed): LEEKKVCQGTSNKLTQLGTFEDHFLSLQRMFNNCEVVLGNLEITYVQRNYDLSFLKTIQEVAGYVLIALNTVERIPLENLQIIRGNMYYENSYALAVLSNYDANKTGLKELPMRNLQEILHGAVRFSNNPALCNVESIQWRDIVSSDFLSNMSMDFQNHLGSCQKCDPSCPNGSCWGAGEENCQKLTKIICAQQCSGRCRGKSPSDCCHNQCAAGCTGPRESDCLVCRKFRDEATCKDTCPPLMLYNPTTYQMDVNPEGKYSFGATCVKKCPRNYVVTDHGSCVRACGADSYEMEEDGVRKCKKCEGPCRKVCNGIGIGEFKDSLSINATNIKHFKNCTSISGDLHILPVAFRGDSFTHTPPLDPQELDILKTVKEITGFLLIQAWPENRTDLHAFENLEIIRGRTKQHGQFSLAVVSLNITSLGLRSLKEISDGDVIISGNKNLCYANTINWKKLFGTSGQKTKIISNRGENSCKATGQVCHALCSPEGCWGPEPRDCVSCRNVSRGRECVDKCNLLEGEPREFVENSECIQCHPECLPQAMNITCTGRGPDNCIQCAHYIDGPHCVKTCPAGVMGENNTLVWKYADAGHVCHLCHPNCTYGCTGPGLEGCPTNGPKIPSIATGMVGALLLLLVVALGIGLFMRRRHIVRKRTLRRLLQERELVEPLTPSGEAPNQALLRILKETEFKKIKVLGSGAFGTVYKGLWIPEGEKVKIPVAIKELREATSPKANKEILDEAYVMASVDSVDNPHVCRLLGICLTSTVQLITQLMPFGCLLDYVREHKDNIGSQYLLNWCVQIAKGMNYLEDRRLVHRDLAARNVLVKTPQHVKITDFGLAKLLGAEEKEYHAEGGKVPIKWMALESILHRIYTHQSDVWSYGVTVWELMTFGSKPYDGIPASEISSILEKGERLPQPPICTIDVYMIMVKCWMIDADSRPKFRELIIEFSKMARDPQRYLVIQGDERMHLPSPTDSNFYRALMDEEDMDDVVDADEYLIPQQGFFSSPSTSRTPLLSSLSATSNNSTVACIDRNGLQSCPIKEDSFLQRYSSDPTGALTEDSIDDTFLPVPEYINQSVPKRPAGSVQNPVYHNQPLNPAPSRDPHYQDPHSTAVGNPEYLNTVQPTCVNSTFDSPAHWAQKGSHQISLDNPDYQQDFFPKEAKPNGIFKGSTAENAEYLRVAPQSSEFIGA

With `C=CC(=O)N1C[C@@H](N(C)CCN(C)C)C[C@H]1COc1cnccc1-c1[nH]c2cccnc2c1-c1ccccc1` (single isomer, unassigned) [Example 132], the values for the IC50 in assay [1], in assay [2] and in assay [3] (48 h) were 9.32 nM, 27.5 nM and 184 nM, respectively.

Turning to `C=CC(=O)N1CC[C@H]1COc1cnccc1-c1[nH]c2cccnc2c1-c1ccccc1` (single isomer, unassigned) [Example 139], the IC50 in assay [1] is 120 nM; in assay [2], 492 nM; in assay [3] (Mus musculus, BaF3, 48 h), 2520 nM.

Regarding `C=CC(=O)N1CC[C@@H]1COc1cnccc1-c1[nH]c2cccnc2c1-c1ccccc1` (single isomer, unassigned) [Example 140], the IC50 came to 0.3 nM in assay [1]; 1.33 nM in assay [2]; 9.73 nM in assay [3] (Mus musculus, BaF3, 48 h).

As for `C=CS(=O)(=O)N1CC[C@H]1COc1cnccc1-c1[nH]c2cccnc2c1-c1ccccc1` (single isomer, unassigned) [Example 141], the IC50 in assay [1] turned out to be 0.596 nM; in assay [2], 2.21 nM; in assay [3] (Mus musculus, BaF3, 48 h), 231 nM.

As for `C=CS(=O)(=O)N1CC[C@@H]1COc1cnccc1-c1[nH]c2cccnc2c1-c1ccccc1` (single isomer, unassigned) [Example 142], the IC50 in assay [1] was under 0.0725 nM; in assay [2], 0.262 nM; in assay [3] (Mus musculus, BaF3, 48 h), 16 nM.

`C=CC(=O)N1CC[C@H]1COc1cnccc1-c1[nH]c2cccnc2c1-c1cccc(C(F)(F)F)c1` (single isomer, unassigned) [Example 143]: the IC50 in assay [1] turned out to be 129 nM; in assay [2], 678 nM; in assay [3] (Mus musculus, BaF3, 48 h) it was 3840 nM.

Regarding `C=CS(=O)(=O)N1CC[C@H]1COc1cnccc1-c1[nH]c2cccnc2c1-c1cccc(C(F)(F)F)c1` (single isomer, unassigned) [Example 144], the IC50 in assay [1] was determined as 5.12 nM; in assay [2], 19 nM; in assay [3] (Mus musculus, BaF3, 48 h), 1520 nM.

On to `C=CC(=O)N(C)C[C@H](C)Oc1cnccc1-c1[nH]c2cccnc2c1-c1ccccc1` (stereo in doubt) [Example 133, N-methyl-N-[2-{[4-(3-phenyl-1H-pyrrolo[3,2-b]pyridin-2-yl)pyridin-3-yl]oxy}propyl]prop-2-enamide], for which the IC50 stood at 3470 nM in assay [1]; 5590 nM in assay [2]; 9000 nM in assay [3] (Mus musculus, BaF3, 48 h).

As for `C=CS(=O)(=O)N(C)C[C@H](C)Oc1cnccc1-c1[nH]c2cccnc2c1-c1ccccc1` (stereo in doubt) [Example 134, N-methyl-N—[-2-{[4-(3-phenyl-1H-pyrrolo[3,2-b]pyridin-2-yl)pyridin-3-yl]oxy}propyl]ethenesulfonamide], the IC50 in assay [1] was determined as 22 nM; in assay [2], 101 nM; in assay [3] (Mus musculus, BaF3, 48 h), 622 nM.

For `C=CC(=O)N(C)CCOc1cnccc1-c1[nH]c2cccnc2c1-c1ccc2cc[nH]c2c1` [Example 16, N-[2-({4-[3-(1H-indol-6-yl)-1H-pyrrolo[3,2-b]pyridin-2-yl]pyridin-3-yl}oxy)ethyl]-N-methylprop-2-enamide], the IC50 in assay [1] was 7.65 nM; in assay [2], 32.3 nM; in assay [3] (Mus musculus, BaF3, 48 h), 584 nM.

Turning to `C=CC(=O)N(C)CCOc1cnccc1-c1[nH]c2cccnc2c1-c1cc(Cl)ccc1F` [Example 43, N-[2-({4-[3-(5-chloro-2-fluorophenyl)-1H-pyrrolo[3,2-b]pyridin-2-yl]pyridin-3-yl}oxy)ethyl]-N-methylprop-2-enamide], the IC50 in assay [1] came out at 11.7 nM; in assay [2], 33.2 nM; in assay [3] (Mus musculus, BaF3, 48 h), 538 nM.

Regarding `C=CC(=O)N(C)CCOc1cnccc1-c1[nH]c2cccnc2c1-c1ccc2ccsc2c1` [Example 44, N-[2-({4-[3-(1-benzothiophen-6-yl)-1H-pyrrolo[3,2-b]pyridin-2-yl]pyridin-3-yl}oxy)ethyl]-N-methylprop-2-enamide], the IC50 in assay [1] came to 21.1 nM; in assay [2] it was 64 nM; in assay [3] (Mus musculus, BaF3, 48 h), 999 nM.

Turning to `C=CC(=O)N(C)CCOc1cnccc1-c1[nH]c2cccnc2c1-c1cccc(CC)c1` [Example 45, N-[2-({4-[3-(3-ethylphenyl)-1H-pyrrolo[3,2-b]pyridin-2-yl]pyridin-3-yl}oxy)ethyl]-N-methylprop-2-enamide], the IC50 in assay [1] was 24.6 nM; in assay [2] it was 76.3 nM; in assay [3] (Mus musculus, BaF3, 48 h), 1280 nM.

With `C=CC(=O)N(C)CCOc1cnccc1-c1[nH]c2cccnc2c1-c1cc(F)ccc1F` [Example 46, N-[2-({4-[3-(2,5-difluorophenyl)-1H-pyrrolo[3,2-b]pyridin-2-yl]pyridin-3-yl}oxy)ethyl]-N-methylprop-2-enamide], the IC50 in assay [1] worked out at 27.3 nM; in assay [2], 60.5 nM; in assay [3] (Mus musculus, BaF3, 48 h), 1150 nM.

Turning to `C=CC(=O)N(C)CCOc1cnccc1-c1[nH]c2cccnc2c1-c1cc(C)ccc1F` [Example 47, N-[2-({4-[3-(2-fluoro-5-methylphenyl)-1H-pyrrolo[3,2-b]pyridin-2-yl]pyridin-3-yl}oxy)ethyl]-N-methylprop-2-enamide], the IC50 in assay [1] turned out to be 32.8 nM; in assay [2], 19.6 nM; in assay [3] (Mus musculus, BaF3, 48 h), 493 nM.

Take `C=CC(=O)N(C)CCOc1cnccc1-c1[nH]c2cccnc2c1-c1cc(CC)ccc1F` [Example 48, N-[2-({4-[3-(5-ethyl-2-fluorophenyl)-1H-pyrrolo[3,2-b]pyridin-2-yl]pyridin-3-yl}oxy)ethyl]-N-methylprop-2-enamide]: the IC50 in assay [1] was found to be 36.8 nM; in assay [2], 109 nM; in assay [3] (Mus musculus, BaF3, 48 h), 962 nM.

In the case of `C=CC(=O)N(C)CCOc1cnccc1-c1[nH]c2cccnc2c1-c1cccc(C(F)(F)F)c1` [Example 49, N-methyl-N-{2-[(4-{3-[3-(trifluoromethyl)phenyl]-1H-pyrrolo[3,2-b]pyridin-2-yl}pyridin-3-yl)oxy]ethyl}prop-2-enamide], the IC50 in assay [1] was determined as 57.4 nM; in assay [2], 151 nM; in assay [3] (Mus musculus, BaF3, 48 h), 1930 nM.

`C=CC(=O)N(C)CCOc1cnccc1-c1[nH]c2cccnc2c1-c1cc(C)cc(F)c1` [Example 50, N-[2-({4-[3-(3-fluoro-5-methylphenyl)-1H-pyrrolo[3,2-b]pyridin-2-yl]pyridin-3-yl}oxy)ethyl]-N-methylprop-2-enamide]: the IC50 is 63.7 nM in assay [1]; 131 nM in assay [2]; 1770 nM in assay [3] (Mus musculus, BaF3, 48 h).

In general, IC50 refers to the concentration needed to halve the response being measured.
